Data published in ChEMBL document CHEMBL1150521, “2-NAP: a selective, hydrophilic, non-peptide CCKA - receptor antagonist derived from the cholecystokinin C-terminal dipeptide” (Bioorg Med Chem Lett, 1993).
One block for each molecule: values may come before it. Active and inactive are the calls of the source. No cut-off for these calls is given here. Residues, ends and D or L forms follow the SMILES beside them. *: point of attachment. Boc = CC(C)(C)OC(=O)*

How the values were obtained:
[1] = molecular target: T1, Cholecystokinin receptor type A (Cavia porcellus) (UniProt Q63931); test: Binding affinity for Cholecystokinin type A receptor in Guinea-Pig gall bladder; assay type: tissue-based
T1 sequence (whole entry): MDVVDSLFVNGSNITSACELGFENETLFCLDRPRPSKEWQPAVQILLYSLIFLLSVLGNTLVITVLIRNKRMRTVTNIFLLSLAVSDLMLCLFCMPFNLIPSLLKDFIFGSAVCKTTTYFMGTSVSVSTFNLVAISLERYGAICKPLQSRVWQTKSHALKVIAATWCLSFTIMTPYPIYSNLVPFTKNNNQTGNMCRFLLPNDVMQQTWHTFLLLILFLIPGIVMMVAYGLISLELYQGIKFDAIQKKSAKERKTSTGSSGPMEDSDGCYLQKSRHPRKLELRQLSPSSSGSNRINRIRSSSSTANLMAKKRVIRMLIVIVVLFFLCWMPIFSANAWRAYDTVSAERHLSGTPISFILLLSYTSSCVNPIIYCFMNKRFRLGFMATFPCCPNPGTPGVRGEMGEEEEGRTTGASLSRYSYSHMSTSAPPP

[2] = Compound was evaluated for partition coefficient using chloroform/buffer at pH 7.4 and 254 nm; assay type: physicochemical; conditions: octanol/water
[3] = Compound was evaluated for partition coefficient using chloroform/buffer at pH 7.4 and 280 nm; assay type: physicochemical; conditions: octanol/water
[4] = molecular target: T2, Gastrin/cholecystokinin type B receptor (Mus musculus, UniProt P56481); test: Compound was evaluated for its affinity against Cholecystokinin type B receptor in mouse cerebral cortex; assay type: tissue-based
T2 sequence (P56481 whole entry): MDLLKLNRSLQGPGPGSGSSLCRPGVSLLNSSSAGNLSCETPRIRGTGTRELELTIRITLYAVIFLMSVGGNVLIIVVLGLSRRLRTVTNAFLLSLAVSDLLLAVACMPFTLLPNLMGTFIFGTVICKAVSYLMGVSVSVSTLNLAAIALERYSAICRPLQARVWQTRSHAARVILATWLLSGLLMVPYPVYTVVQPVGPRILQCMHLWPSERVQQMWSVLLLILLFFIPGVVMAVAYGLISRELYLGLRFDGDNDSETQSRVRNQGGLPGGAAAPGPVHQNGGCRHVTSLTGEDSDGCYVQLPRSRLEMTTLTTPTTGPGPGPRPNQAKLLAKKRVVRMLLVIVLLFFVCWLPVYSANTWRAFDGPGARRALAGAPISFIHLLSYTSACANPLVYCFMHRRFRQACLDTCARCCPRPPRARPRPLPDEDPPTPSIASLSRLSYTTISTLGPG

[5] = molecular target: T3, Cholecystokinin receptor type A (Cavia porcellus, UniProt Q63931); test: In vitro affinity against Cholecystokinin type A receptor in guinea pig pancreatic cell
T3 sequence (Q63931 whole entry): T1 sequence (whole entry)

[6] = molecular target: T1, Cholecystokinin receptor type A (Cavia porcellus); test: Affinity at Cholecystokinin type A receptor in guinea pig gall bladder; inactive at the limits of solubility, usually 10e-4 M.; assay type: tissue-based
[7] = molecular target: T4, Gastrin/cholecystokinin type B receptor (Mus musculus) (UniProt P56481); test: Maximum acid secretion obtained at 10e -5 M: values expressed as percentage of the maximum response to pentagastrin (n=4/6) in mouse stomach at CCKB/Gastrin receptor; inactive at the limits of solubility, usually 10e-4 M.; assay type: functional, tissue-based
T4 sequence (whole entry): T2 sequence (P56481 whole entry)

[8] = molecular target: T4, Gastrin/cholecystokinin type B receptor (Mus musculus); test: Efficiency against CCKB/Gastrin receptor for stimulation of gastric acid secretion in lumen-perfused mouse stomach: activity measured as midpoint agonist concentration-effect curve parameter; inactive at the limits of solubility, u sually 10e-4M.; assay type: functional, tissue-based
[9] = molecular target: T1, Cholecystokinin receptor type A (Cavia porcellus); test: Compound was evaluated for its affinity at Cholecystokinin type A receptor in Guinea-Pig gallbladder; inactive at the limits of solubility, usually 10e-4 M.
[10] = molecular target: T1, Cholecystokinin receptor type A (Cavia porcellus); test: Compound was evaluated for its affinity at Cholecystokinin type A receptor in Guinea-Pig gallbladder
[11] = molecular target: T4, Gastrin/cholecystokinin type B receptor (Mus musculus); test: Maximum acid secretion obtained at 10e -5 M: values expressed as percentage of the maximum response to pentagastrin (n=4/6) in mouse stomach at CCKB/Gastrin receptor; assay type: functional, tissue-based
[12] = molecular target: T4, Gastrin/cholecystokinin type B receptor (Mus musculus); test: Efficiency against CCKB/Gastrin receptor for stimulation of gastric acid secretion in lumen-perfused mouse stomach: activity measured as midpoint agonist concentration-effect curve parameter; assay type: functional, tissue-based
[13] = molecular target: T1, Cholecystokinin receptor type A (Cavia porcellus); test: Compound was evaluated for its affinity at Cholecystokinin type A receptor in Guinea-Pig gall bladder; assay type: tissue-based
[14] = molecular target: T1, Cholecystokinin receptor type A (Cavia porcellus); test: Compound was evaluated for its affinity at Cholecystokinin type A receptor in Guinea-Pig gall bladder; inactive at 10e-4 M; assay type: tissue-based

Structure (SMILES): CC(C)(C)OC(=O)N[C@@H](CC(=O)O)C(=O)NCCc1ccccc1
- pKB [9]: inactive
- Max response [7]: inactive
- p[A50] [8]: inactive

Structure (SMILES): O=C(O)C[C@H](NS(=O)(=O)/C=C/c1ccccc1)C(=O)NCCc1ccccc1
- pKB [1]: 6.3

Structure (SMILES): COc1cc2cc(S(=O)(=O)N[C@@H](CC(=O)O)C(=O)NCCc3ccccc3)ccc2c(Cl)c1OC
- pKB [1]: 6.2

Structure (SMILES): NC(=O)[C@H](Cc1ccccc1)NC(=O)[C@H](CC(=O)O)NC(=O)c1ccc2ccccc2c1
- pKB [6]: inactive
- Max response [11]: 100%
- p[A50] [12]: 5

Structure (SMILES): O=C(O)C[C@H](NS(=O)(=O)CCc1ccccc1)C(=O)NCCc1ccccc1
- pKB [1]: 5.5

Structure (SMILES): O=C(O)C[C@H](NS(=O)(=O)c1ccc(Cl)c(Cl)c1)C(=O)NCCc1ccccc1
- pKB [1]: 5.8

Structure (SMILES): CC(C)C[C@H](NC(=O)[C@H](Cc1c[nH]c2ccccc12)NC(=O)OC(C)(C)C)C(=O)N[C@@H](CC(=O)O)C(=O)N[C@@H](Cc1ccccc1)C(N)=O (Boc-WLDF-NH2)
- pKB [13]: 5.1
- Max response [11]: 100%
- p[A50] [12]: 8.6

Structure (SMILES): O=C(O)C[C@H](NS(=O)(=O)CCCc1ccccc1)C(=O)NCCc1ccccc1
- pKB [6]: inactive

Structure (SMILES): O=C(O)C[C@H](NS(=O)(=O)Cc1ccccc1)C(=O)NCCc1ccccc1
- pKB [6]: inactive

Structure (SMILES): CN1C(=O)[C@@H](NC(=O)c2cc3ccccc3[nH]2)N=C(c2ccccc2)c2ccccc21 [DEVAZEPIDE]
- logD [2]: 4.16
- logD [3]: 4.1

Structure (SMILES): NC(=O)[C@H](Cc1ccccc1)NC(=O)[C@H](CC(=O)O)NS(=O)(=O)c1cccc2ccccc12
- pKB [6]: inactive
- Max response [11]: 30%
- p[A50] [12]: 4.6

Structure (SMILES): CC(C)(C)OC(=O)N[C@@H](CC(=O)O)C(=O)N[C@@H](Cc1ccccc1)C(N)=O (Boc-Asp-Phe-NH2)
- pKB [14]: inactive
- Max response [11]: 100%
- p[A50] [12]: 5.7

Other lines, results leading:

- pKB [1]: 7
Structure (SMILES): O=C(O)C[C@H](NS(=O)(=O)c1ccc2ccccc2c1)C(=O)NCCCc1ccccc1

- logD [2]: -0.91
- logD [3]: -0.91
- Ki [4]: 69.2 µM
- Ki [5]: 0.355 µM
- pKB [6]: 6.5
- Max response [7]: inactive
- p[A50] [8]: inactive
Structure (SMILES): O=C(O)C[C@H](NS(=O)(=O)c1ccc2ccccc2c1)C(=O)NCCc1ccccc1

- pKB [1]: 5.4
Structure (SMILES): O=C(O)C[C@H](NS(=O)(=O)Cc1ccc2ccccc2c1)C(=O)NCCc1ccccc1

- pKB [1]: 6
Structure (SMILES): COc1ccc(CCNC(=O)[C@H](CC(=O)O)NS(=O)(=O)c2ccc3ccccc3c2)cc1

- pKB [6]: inactive
- Max response [7]: inactive
- p[A50] [8]: inactive
Structure (SMILES): O=C(O)C[C@H](NS(=O)(=O)c1cccc2ccccc12)C(=O)NCCc1ccccc1

- pKB [1]: 5
Structure (SMILES): NS(=O)(=O)c1ccc(CCNC(=O)[C@H](CC(=O)O)NS(=O)(=O)c2ccc3ccccc3c2)cc1

- pKB [10]: 5.6
- Max response [7]: inactive
- p[A50] [8]: inactive
Structure (SMILES): O=C(O)C[C@H](NC(=O)c1ccc2ccccc2c1)C(=O)NCCc1ccccc1

- pKB [6]: inactive
Structure (SMILES): O=C(O)C[C@H](NS(=O)(=O)c1ccccc1)C(=O)NCCc1ccccc1

- pKB [6]: inactive
Structure (SMILES): Cc1ccc(S(=O)(=O)N[C@@H](CC(=O)O)C(=O)NCCc2ccccc2)cc1

- pKB [6]: inactive
- Max response [11]: 96%
- p[A50] [12]: 5.6
Structure (SMILES): NC(=O)[C@H](Cc1ccccc1)NC(=O)[C@H](CC(=O)O)NS(=O)(=O)c1ccc2ccccc2c1

- pKB [1]: 6.6
Structure (SMILES): O=C(O)C[C@H](NS(=O)(=O)c1ccc2ccccc2c1)C(=O)NCCc1ccc(F)cc1

- pKB [6]: inactive
Structure (SMILES): O=C(O)CC[C@@H](NS(=O)(=O)c1ccc2ccccc2c1)C(=O)NCCc1ccccc1

- pKB [6]: inactive
Structure (SMILES): COc1ccc(S(=O)(=O)N[C@@H](CC(=O)O)C(=O)NCCc2ccccc2)cc1

- pKB [1]: 6.1
Structure (SMILES): O=C(O)CC[C@H](NS(=O)(=O)c1ccc2ccccc2c1)C(=O)NCCc1ccccc1

- pKB [1]: 5.9
Structure (SMILES): O=C(O)C[C@@H](NS(=O)(=O)c1ccc2ccccc2c1)C(=O)NCCc1ccccc1

- pKB [1]: 6.5
Structure (SMILES): COc1ccc2cc(S(=O)(=O)N[C@@H](CC(=O)O)C(=O)NCCc3ccccc3)ccc2c1Cl

- pKB [1]: 6.6
Structure (SMILES): COc1ccc2cc(S(=O)(=O)N[C@@H](CC(=O)O)C(=O)NCCc3ccccc3)ccc2c1
